# Reference: patent US20140135396A1, “Treatment of Acetaminophen-Induced Liver Damage by the Administration of Modulators of Nitric Oxide” (BETH ISRAEL DEACONESS MEDICAL CENTER, INC., priority 2011, published 2014)
# Entries after “also recorded” stand apart in the source; their conditions may differ.
# Legend:
# zebrafish embryos [1] = experiment: Liver size in zebrafish embryos (lfabp in situ hybridization, lfabp:GFP); format: in vivo; details: for liver size: other NO donors at optimal doses, alternative NOS inhibitor, inactive enantiomer, dose series; for liver size (in situ hybridization for lfabp and transferrin): 10 μM, exposure 24-72 hpf
# Protocol: In order to identify regulators of liver formation a chemical genetic screen was conducted. Several of the chemicals identified by the screen were known to impact on NO signaling. Based on these initial observations, well-established modulators of NO signaling were secondarily screened for effects on liver formation. […] The contrasting effects of L-Arg and L-NAME on liver formation were confirmed by in vivo fluorescent microscopy of lfabp:GFP transgenic zebrafish. To quantify the phenotypic changes caused by NO signaling, the liver size (region of lfabp expression) of treated embryos were scored as large, medium or small. […]
# To further characterize the role of NO signaling on liver formation, we studied the temporal requirements for NO signaling. Embryos were exposed to Deta (10 μM), L-Arg (10 μM) or L-NAME (10 μM) from 24-48 or 48-72 hpf at which point liver size was assessed. […] Exposure of embryos to L-Arg (10 μM) caused a subtle yet significant increase in the hepatic bud size at 36 hpf (region of hhex expression) in 26% of embryos, whereas L-NAME diminished hepatic bud size in 33% of embryos. […]
# lfabp:GFP embryos [2] = experiment: APAP-induced liver injury in zebrafish larvae, sub-lethal dose (liver size, BrdU); format: in vivo; details: for liver size: APAP 5 mM 48-60 hpf, treatment in recovery phase 60-96 hpf, L-NAME 10 μM, NAC 10 μM, GSNORi 1 μM; for liver size and survival after APAP exposure: summary, embryos and adults, co-exposure; for liver size / hepatoprotection: co-exposure model: APAP 5 mM concurrently with treatment 48-96 hpf, Deta 5 μM
# Protocol: In order to examine the possible hepatoprotective effect of GSNORi in the context of acetaminophen (APAP) induced liver injury. Transgenic lfabp:GFP embryos were exposed to a sub-lethal dose of APAP (5 mM) from 48 to 60 hpf followed by treatment during the recovery phase (60-96 hpf) with L-NAME, GSNORi and/or NAC. […] In order to further investigate the proliferative effect of treatments following APAP induced liver injury, we examined BrdU incorporation during the recovery phase.
# zebrafish embryos [3] = experiment: Survival of zebrafish embryos exposed to a lethal dose of APAP; format: in vivo; details: for survival: GSNORi 1 μM, NAC 10 μM; for survival compared to APAP alone: co-exposure 5 μM
# Protocol: Having found a hepatoprotective effect of GSNORi in embryos exposed to a sublethal dose of APAP, we next examined whether GSNORi was able to enhance survival in embryos exposed to a lethal dose of APAP (10 mM).
# adult zebrafish = experiment: APAP-induced liver injury in adult zebrafish; format: in vivo; details: for hepatic glutathione (GSH) / liver histology / overall survival compared to APAP alone: APAP 10 mM; for hepatic glutathione (GSH) / liver histology: GSNORi 1 μM and/or NAC 10 μM; for overall survival compared to APAP alone: adults, Deta 5 μM, GSNO 5 μM
# Protocol: Having shown that GSNORi was hepatoprotective in APAP exposed larvae, we wanted to examine whether GSNORi remained effective in adult zebrafish. To visualise the hepatoprotective properties of GSNORi in vivo, adult casper lfabp:GFP transgenic fish were exposed to APAP (10 mM) in the presence or absence of GSNORi (1 μM) for 24 hr and examined 72 hpe by fluorescence microscopy. […] To gain a greater understanding of the hepatoprotective potential of GSNORi, survival studies were conducted in which adults were exposed to APAP (10 mM) in the presence or absence of GSNORi (1 μM) for 24 hr, followed by a 2-day recovery period in fresh water. […] The differences in survival were reflected in circulating ALT levels, which are used clinically to assess liver toxicity; peaking at 24 hpe with 196 U/L in APAP (10 mM) exposed fish and 55 U/L for fish exposed to APAP with GSNORi (1 μM).
# Given that treatments for APAP-induced liver injury are provided after a considerable delay in the clinical setting, we wanted to determine whether GSNORi would remain hepatoprotective when treatment was delayed. In addition, we wanted to ascertain whether GSNORi could synergize with the clinical antidote NAC and extend the therapeutic window.
# zebrafish embryos [4] = experiment: Hepatic bud size in zebrafish embryos (hhex, foxA3, sid4 expression); format: in vivo
# Protocol: To further characterize the role of NO signaling on liver formation, we studied the temporal requirements for NO signaling. Embryos were exposed to Deta (10 μM), L-Arg (10 μM) or L-NAME (10 μM) from 24-48 or 48-72 hpf at which point liver size was assessed. […] Exposure of embryos to L-Arg (10 μM) caused a subtle yet significant increase in the hepatic bud size at 36 hpf (region of hhex expression) in 26% of embryos, whereas L-NAME diminished hepatic bud size in 33% of embryos.
# The expression pattern of an alternate hepatic progenitor marker prox1 corroborated that chemical modulators of NO signaling alter the size of the developing hepatic bud. […] These findings were verified by qPCR for hhex and foxA3.
# zebrafish embryos [5] = experiment: Chemical genetic screen for effects on liver development in zebrafish embryos; format: in vivo; details: lfabp:GFP fluorescence and lfabp in situ hybridization at 72 hpf
# Protocol: The liver arises from anterior endodermal progenitor cells. Liver development can be divided into three stages, specification (18-24 hours post fertilization, hpf), budding/differentiation (24-72 hpf), and hepatic outgrowth (72-96 hpf). The various stages of liver development can be observed in the embryo by in situ hybridization for hhex (endodermal progenitors), foxA3 (differentiated endoderm) and liver fatty acid binding protein (lfabp, marker of hepatocytes).
# In an effort to identify novel regulators of liver formation and homeostasis, a library of 2880 biologically active compounds (obtained from the ICCB at Harvard Medical School) was previously screened for global effects on liver development in zebrafish. Hepatogenesis was assessed in vivo using fluorescent reporter fish where the hepatocyte-specific lfabp promoter drives GFP expression. All embryos were imaged with fluorescence microscopy at 72 hpf, then fixed and subjected to in situ hybridization for lfabp to confirm the in vivo findings. Of the chemical treatments, 191 compounds (6.6%) increased, and 344 (11%) decreased liver formation.
# zebrafish embryos [6] = experiment: Effect on organs other than the liver in zebrafish embryos (in situ hybridization); format: in vivo; details: 10 μM, 18 hpf until 72 hpf
# Protocol: These findings were corroborated by qPCR for lfabp.
# In order to examine the effect that NO signaling had on other endodermal organs including the pancreas and gut, embryos were exposed to Deta (10 μM) or L-NAME (10 μM) from 18 hpf until 72 hpf. Endodermal derived tissue, the exocrine pancreas and gut were stained by in situ hybridization for foxa3, trypsin and ifabp, respectively.
# cloche embryos = experiment: Liver size in cloche mutant embryos lacking vasculature; format: in vivo, zebrafish; details: for liver size in cloche embryos: summary statement
# Source text: NO signaling can occur via 2 distinct mechanisms namely, cGMP-dependent vasodilation and S-nitrosylation pathways. In order to clarify the importance of the well-known vascular effects of NO, we examined the effect of chemical modulators of NO signaling in cloche mutants that have no endothelial cells and therefore lack any vasculature.
# lfabp:GFP embryos [7] = experiment: Flow cytometric analysis of GFP+ hepatocytes in lfabp:GFP embryos; details: GFP+ cells, compared to control
# Source text: S-nitrosoglutathione reductase (GSNOR) is the major enzyme responsible for metabolizing S-nitrosothiols and is therefore a key negative regulator of S-nitrosylation pathways. We reasoned that by inhibiting GSNOR function we could stimulate S-nitrosothiol signaling and modulate liver formation.
# zebrafish embryos [8] = experiment: Hepatic progenitor proliferation in zebrafish embryos (BrdU incorporation, pH3 staining); format: in vivo; details: for BrdU incorporation (BrdU positive cells): developing hepatic bud; for staining for the mitotic marker pH3: treated embryos
# NO production = NO production in vivo with fluorescent probe Cu(2)(FL2E); set-up: species or system zebrafish; details: cell-trappable fluorescent probe Cu(2)(FL2E)
# Zebrafish = experiment: Liver regeneration after 1/3 partial hepatectomy in zebrafish; format: in vivo; details: 10 μM
# Source text: In order to determine whether the hepatoprotective and pro-regenerative effect of GSNOR inhibition was limited to APAP-induced liver injury, we determined the impact of exposure to GSNORi after ⅓ partial hepatectomy.
# WT mice = experiment: APAP-induced liver injury in WT mice treated with GSNORi and/or NAC; format: in vivo; details: APAP 300 mg/kg, treatment 2 hrs later, GSNORi 5 mg/kg, NAC 300 mg/kg
# Protocol: To investigate this possibility, WT mice were injected with a sub-lethal dose of APAP (300 mg/kg) followed 2 hrs later by treatment with GSNORi (5 mg/kg) and/or NAC (300 mg/kg). Mice were sacrificed at 6 or 24 hr.
# [9] = APAP 10 mM 48-96 hpf, co-exposure
# [10] = APAP 10 mM for 18 hr followed by delayed treatment, GSNORi 1 μM, NAC 10 μM
compound,measurement,setting,value
"CC(=O)NC(C(=O)O)C(C)(C)SN=O (racemic) [SNAP, S-Nitroso-N-Acetyl-D,L-Penicillamine]",liver size,zebrafish embryos [1],increase liver size
"CC(=O)Nc1ccc(O)cc1 [APAP, N-acetyl-p-aminophenol]",liver size,lfabp:GFP embryos [2],dramatic decrease in liver size
same,liver size and survival after APAP exposure,lfabp:GFP embryos [2],decrease in liver size and death
same,survival,zebrafish embryos [3]; [9],4%
same,circulating ALT,"adult zebrafish; 24 hpe, APAP 10 mM ± GSNORi 1 μM",196 U/L
same,survival by 72 hpe,adult zebrafish; [10],57%
same,survival by 72 hpe,"adult zebrafish; APAP 10 mM ± GSNORi 1 μM for 24 hr, 2-day recovery in fresh water",39%
same,hepatic glutathione (GSH),adult zebrafish,dramatic reduction in hepatic glutathione (GSH)
same,liver histology,adult zebrafish,hepatocyte necrosis and hemorrhaging
same,GFP fluorescence (fluorescence microscopy),"adult zebrafish; adult casper lfabp:GFP fish, APAP 10 mM ± GSNORi 1 μM for 24 hr, examined 72 hpe",reduction in GFP fluorescence
"N=C(N)NCCC[C@@H](N)C(=O)O [D-Arg, D-Arginine]",liver size,zebrafish embryos [1],no effect on liver size
"NCCN(CCN)/[N+]([O-])=N/O [Deta, Diethylenetriamine-NONOate]",liver size / hepatoprotection,lfabp:GFP embryos [2],protected the liver
same,region of hhex and foxA3 expression in the developing hepatic bud,zebrafish embryos [4]; 10 μM,increasing the region of hhex and foxA3 expression
same,survival compared to APAP alone,zebrafish embryos [3]; APAP 10 mM,increased survival
same,overall survival compared to APAP alone,adult zebrafish,enhanced overall survival
same,liver size,zebrafish embryos [1],increase liver size
same,liver size,zebrafish embryos [5],increase in liver size
same,"size of other endodermal organs (foxa3, trypsin, ifabp)",zebrafish embryos [6],did not observably affect the size of other endodermal organs
"N[C@@H](CCC(=O)N[C@@H](CSN=O)C(=O)NCC(=O)O)C(=O)O [GSNO, S-nitrosoglutathione]",survival compared to APAP alone,zebrafish embryos [3]; APAP 10 mM,increased survival
same,overall survival compared to APAP alone,adult zebrafish,enhanced overall survival
same,embryos with enhanced liver size,zebrafish embryos [1]; GSNO 5 μM,40%
same,embryos with increased liver size,"cloche embryos; cloche mutants, GSNO 5 μM",46%
same,liver size in cloche embryos,cloche embryos,able to modulate liver size
"N=C(N)NCCC[C@H](N)C(=O)O [L-Arg, L-Arginine]",embryos with increase in hepatic bud size (region of hhex expression),"zebrafish embryos [4]; L-Arg 10 μM, 36 hpf",26%
same,embryos with increased hepatic bud size (foxA3 expression),"zebrafish embryos [4]; L-Arg, 48 hpf",51%
same,hepatocytes per embryo,lfabp:GFP embryos [7],increase in hepatocytes per embryo
same,liver size (in situ hybridization for lfabp and transferrin),zebrafish embryos [1],dramatic increase in liver size
same,embryos with a large liver,"zebrafish embryos [1]; L-Arg 10 μM, 24-72 hpf, liver size scored large, medium or small",approximately 51%
same,embryos with increased liver size,"cloche embryos; cloche mutants, L-Arg 10 μM",37%
same,BrdU incorporation (BrdU positive cells),zebrafish embryos [8],increase in BrdU positive cells
same,staining for the mitotic marker pH3,zebrafish embryos [8],increased hepatic proliferation
same,liver size,zebrafish embryos [5],increase in liver size
"COC(=O)[C@@H](N)CCCNC(=N)N[N+](=O)[O-] [L-NAME, L-N^G-Nitroarginine methyl ester]",NO in the developing endoderm,NO production,inhibited
same,liver size,lfabp:GFP embryos [2],exacerbated
same,liver size / hepatoprotection,lfabp:GFP embryos [2],exacerbated injury
same,liver size and survival after APAP exposure,lfabp:GFP embryos [2],further decrease in liver size and more extensive loss in survival
same,embryos with diminished hepatic bud size (hhex),"zebrafish embryos [4]; L-NAME, 36 hpf",33%
same,embryos with restricted hepatic bud size (foxA3 expression),"zebrafish embryos [4]; L-NAME, 48 hpf",60%
same,regenerative activity,Zebrafish,complete cessation of regenerative activity
same,hepatocytes per embryo,lfabp:GFP embryos [7],decrease
same,overall survival compared to APAP alone,adult zebrafish,exacerbated the loss in survival
same,liver size (in situ hybridization for lfabp and transferrin),zebrafish embryos [1],decrease in liver size
same,embryos with diminished liver size,"zebrafish embryos [1]; L-NAME 10 μM, 24-72 hpf",62%
same,embryos with a small liver,"cloche embryos; cloche mutants, L-NAME 10 μM",40%
same,liver size in cloche embryos,cloche embryos,able to modulate liver size
same,BrdU incorporation (BrdU positive cells),zebrafish embryos [8],reduced the number of BrdU positive cells
same,staining for the mitotic marker pH3,zebrafish embryos [8],inhibited cell cycle progression
same,liver size,zebrafish embryos [5],smaller livers; also recorded: small liver
same,"size of other endodermal organs (foxa3, trypsin, ifabp)",zebrafish embryos [6],did not observably affect the size of other endodermal organs
"CC(=O)N[C@@H](CS)C(=O)O [NAC, N-acetylcysteine]","circulating ALT, % of the level of APAP alone",WT mice,43%
same,histological evaluation of centrilobular necrosis,WT mice; 6 and 24 hr,effective in preventing liver necrosis
same,survival,zebrafish embryos [3]; [9],32%
same,survival,"zebrafish embryos [3]; APAP 10 mM, treatment given after a 12 hr delay",15%
same,survival by 72 hpe,adult zebrafish; [10],80%
same,hepatic glutathione (GSH),adult zebrafish,modulated
same,liver histology,adult zebrafish,alleviated
same,cell proliferation (PCNA immunohistochemistry),adult zebrafish; following APAP injury,modulated liver regeneration
NG-amino-L-Arginine [L-NMMA],liver size,zebrafish embryos [1],decrease liver size in a dose-dependent manner
